Test results reported in publication PMC7582544, “Bioactive Ent-Kaurane Diterpenes Oridonin and Irudonin Prevent Cancer Cells Migration by Interacting with the Actin Cytoskeleton Controller Ezrin” (International Journal of Molecular Sciences, 2020).
Read-outs that look alike come from different tables or passages of the source.

Experiments:
[1] = tested on: MKN28; assay: cells; design: species or system C2C12, A375; PrestoBlue cell proliferation/viability assay, absorbance 570 nm, 24 h; settings: Homo sapiens, MKN-28, 24 h
[2] = target: T1, Ezrin (Homo sapiens, UniProt P15311); assay: CETSA dose response at […] °C in MKN28 cells (EC50 […] in A375), Tm shift […] to […] °C; DARTS with MS and Western blot; format: cell-based
T1 construct: gene EZR

[3] = tested on: C2C12; assay: cells; design: species or system MKN28, A375; PrestoBlue cell proliferation/viability assay, absorbance 570 nm, 24 h; settings: Mus musculus, 24 h, non-cancer myoblasts
Protocol: Cell proliferation rate was evaluated measuring mitochondrial metabolic activity through the use of PrestoBlueTM (PB) (Cat. N. A13262, Invitrogen), employed according to the manufacturer’s protocol. Cells were plated onto 96-well plates (8000 cells/well), treated with increasing concentrations (10–60 μM) of Ori or Iru for 24 h and then incubated with PB reagent at 10% final concentration for 1 h. The absorbance was monitored at 570 nm with a reference wavelength set a 600 nm and using a microplate reader (Multiskan Go, Thermo Scientific, Waltham, MA, USA). Cell viability was expressed as a percentage relative to the un-treated cells cultured in DMEM with 0.1% DMSO and set to 100%. The dose compounds reducing cell number by 50% (IC50 values) were calculated using the respective dose–response curves according to the manufacturer’s protocol. IC50 values were used for the subsequent proteomic experiments. Instead, the non-toxic concentration of 10 μM was used for the functional assays. […] To that aim, we first evaluated the cytotoxic potential of both diterpenes on the C2C12 cells; therefore, we exposed for 24 h C2C12 myoblasts to increasing concentrations (10–60 μM) of Ori or of Iru, and, subsequently, we performed cell proliferation assay (Figure 1).

[4] = tested on: A375; assay: cells; design: species or system C2C12, MKN28; PrestoBlue cell proliferation/viability assay, absorbance 570 nm, 24 h; settings: Homo sapiens, A-375, 24 h
[5] = target: T1, Ezrin; assay: CETSA dose response at […] °C in A375 cells (EC50 […] in MKN28), Tm shift […] to […] °C; DARTS with MS and Western blot; format: cell-based

T1 sequence (P15311 whole entry): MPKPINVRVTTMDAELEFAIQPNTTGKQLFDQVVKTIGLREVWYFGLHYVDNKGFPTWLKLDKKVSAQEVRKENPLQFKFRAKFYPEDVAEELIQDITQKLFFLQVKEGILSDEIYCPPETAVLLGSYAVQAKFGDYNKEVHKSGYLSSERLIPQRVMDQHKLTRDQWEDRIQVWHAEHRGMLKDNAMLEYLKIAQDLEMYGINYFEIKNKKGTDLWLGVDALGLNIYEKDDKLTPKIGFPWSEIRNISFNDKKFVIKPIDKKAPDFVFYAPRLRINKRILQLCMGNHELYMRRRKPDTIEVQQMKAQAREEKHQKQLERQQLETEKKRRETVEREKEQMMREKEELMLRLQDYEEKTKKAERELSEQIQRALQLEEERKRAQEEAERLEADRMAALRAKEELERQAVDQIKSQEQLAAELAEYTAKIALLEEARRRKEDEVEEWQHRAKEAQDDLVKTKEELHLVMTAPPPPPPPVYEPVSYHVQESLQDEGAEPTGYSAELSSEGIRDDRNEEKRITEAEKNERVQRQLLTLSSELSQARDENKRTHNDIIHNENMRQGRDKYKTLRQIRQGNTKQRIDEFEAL

Row | SMILES | IC50 ([1]; read-out: Iru IC50) | EC50 [2] | IC50 ([3]; read-out: Iru IC50) | IC50 ([4]; read-out: Iru IC50) | IC50 ([1]; read-out: Ori IC50) | IC50 ([3]; read-out: Ori IC50) | EC50 [5] | IC50 ([4]; read-out: Ori IC50)
1 | C=C1C(=O)[C@@]23C(CC[C@@H]1[C@H]2O)[C@]12CCCC(C)(C)C1[C@H](O)[C@@]3(O)O[C@H]2O (some centres unmarked) [Iru] | 25 µM | 13 µM | 50 µM | 35 µM | – | – | – | –
2 | C=C1C(=O)[C@]23[C@H](O)[C@H]1CC[C@H]2[C@@]12CO[C@]3(O)[C@@H](O)[C@@H]1C(C)(C)CC[C@@H]2O [Ori, (1S,2S,5S,8R,9S,10S,11R,15S,18R)-9,10,15,18-tetrahydroxy-12,12-dimethyl-6-methylidene-17-oxapentacyclo (7.6.2.15,8.01,11.02,8) octadecan-7-one] | – | – | – | – | 20 µM | 30 µM | 19 µM | 25 µM
